This note sets out measurements from the supplement of paper PMC8967900.

SMILES strings stand for the structures.
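Note: ALL cell lines in 384-well plates, five doses spanning 10,000-fold, each plate scaled between vehicle and 100 µmol/L benzalkonium chloride controls, sDSS an adapted area-under-curve metric.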

One test has as its system ALL-PO. The test can be described thus: selective drug sensitivity score (sDSS, relative to normal bone marrow) (sDSS (score)); higher = more potent and effective on the cell line relative to normal bone marrow cells. The conditions noted are these: 72 h.
Turning to `Nc1ccccc1NC(=O)c1ccc(CNC(=O)OCc2cccnc2)cc1` [Entinostat] (top concentration 10000 nM), the “selective drug sensitivity score” value worked out at 4.08.
On the same count and under the same terms, to `C#Cc1cccc(Nc2ncnc3cc(OCCOC)c(OCCOC)cc23)c1` [Erlotinib] (top concentration 10000 nM) belongs 5.46; to `O=C(Nc1nc2cccc(-c3ccc(CN4CCS(=O)(=O)CC4)cc3)n2n1)C1CC1` [Filgotinib] (top concentration 10000 nM), 6.16.
In the case of `C[C@H]1C=C2C(=O)O[C@H]3CC[C@@H](C1)[C@@]23O` [Galiellalactone] (top concentration 25000 nM), the “selective drug sensitivity score” value was -0.34.
On the same count and under the same terms, to `CN(C)C1CCN(C(=O)c2ccc(NC(=O)Nc3ccc(-c4nc(N5CCOCC5)nc(N5CCOCC5)n4)cc3)cc2)CC1` [Gedatolisib] (top concentration 1000 nM) belongs 1.06; to `Nc1ccn([C@@H]2O[C@H](CO)[C@@H](O)C2(F)F)c(=O)n1` [Gemcitabine] (top concentration 1000 nM), 8.06; to `COc1cc2c(cc1-c1c(C)noc1C)ncc1[nH]c(=O)n([C@H](C)c3ccccn3)c12` [I-BET151] (top concentration 10000 nM), 6.36.
Still for that read-out and setting: to `O=C1CCc2c(Oc3ccc4c(c3)[C@@H]3[C@H](O4)[C@H]3c3nc4cc(C(F)(F)F)ccc4[nH]3)ccnc2N1` [Lifirafenib (BGB-283)] (top concentration 10000 nM) belongs 6.98; to `NC(=O)N1CCC(CC(=O)N2CCC([C@H]3c4ncc(Br)cc4CCc4cc(Cl)cc(Br)c43)CC2)CC1` [Lonafarnib] (top concentration 100000 nM), 4.64.
The same measure, in the same setting: to `NC1(c2ccc(-c3nc4ccn5c(=O)[nH]nc5c4cc3-c3ccccc3)cc2)CCC1` [MK-2206] (top concentration 1000 nM) belongs 5.46; to `O=C(Nc1cccc(NC(=O)c2cccc(O)c2O)c1)c1cccc(O)c1O` [MST-312] (top concentration 10000 nM), 5.6; to `CC(=O)O[C@]1(C(C)=O)CC[C@H]2[C@@H]3C=C(C)C4=CC(=O)CC[C@]4(C)[C@H]3CC[C@@]21C` [Megestrol_acetate] (top concentration 10000 nM), 17.9.
Consider `CO[C@@H]1[C@H](N(C)C(=O)c2ccccc2)C[C@H]2O[C@]1(C)n1c3ccccc3c3c4c(c5c6ccccc6n2c5c31)C(=O)NC4` [Midostaurin] (top concentration 10000 nM), for which the “selective drug sensitivity score” value turned out to be 14.8.
Same read-out and setting: to `CCCCCCCCCCCCCCCCOP(=O)([O-])OCC[N+](C)(C)C` [Miltefosine] (top concentration 100000 nM) belongs 2.26; to `Nc1ccccc1NC(=O)c1ccc(CNc2nccc(-c3cccnc3)n2)cc1` [Mocetinostat] (top concentration 10000 nM), 7.24.
Regarding `CCNC(=O)C[C@@H]1N=C(c2ccc(Cl)cc2)c2cc(OC)ccc2-n2c(C)nnc21` [Molibresib] (top concentration 10000 nM), the “selective drug sensitivity score” value worked out at 3.6.
Still for that read-out and setting: to `Nc1ncnc2c1c(-c1cccc(OCc3ccccc3)c1)cn2[C@H]1C[C@@H](CN2CCC2)C1` [NVP-AEW541] (top concentration 10000 nM) belongs 3.98; to `CN[C@@H](C)C(=O)N[C@H](C(=O)N1CCC[C@H]1c1nc(C(=O)c2ccc(F)cc2)cs1)C1CCCCC1` [NVP-LCL161] (top concentration 25000 nM), 0.38.

For a further test, the system named is 380. The test is described as above. The conditions noted are these: 72 h.
With `Nc1ccccc1NC(=O)c1ccc(CNC(=O)OCc2cccnc2)cc1` [Entinostat] (top concentration 10000 nM), the “selective drug sensitivity score” value worked out at 13.1.
Same read-out and setting: to `C#Cc1cccc(Nc2ncnc3cc(OCCOC)c(OCCOC)cc23)c1` [Erlotinib] (top concentration 10000 nM) belongs 2.36; to `O=C(Nc1nc2cccc(-c3ccc(CN4CCS(=O)(=O)CC4)cc3)n2n1)C1CC1` [Filgotinib] (top concentration 10000 nM), 11.7; to `C[C@H]1C=C2C(=O)O[C@H]3CC[C@@H](C1)[C@@]23O` [Galiellalactone] (top concentration 25000 nM), 13.
Still for that read-out and setting: to `CN(C)C1CCN(C(=O)c2ccc(NC(=O)Nc3ccc(-c4nc(N5CCOCC5)nc(N5CCOCC5)n4)cc3)cc2)CC1` [Gedatolisib] (top concentration 1000 nM) belongs 14.8.
Still for that read-out and setting: to `Nc1ccn([C@@H]2O[C@H](CO)[C@@H](O)C2(F)F)c(=O)n1` [Gemcitabine] (top concentration 1000 nM) belongs 23.5; to `COc1cc2c(cc1-c1c(C)noc1C)ncc1[nH]c(=O)n([C@H](C)c3ccccn3)c12` [I-BET151] (top concentration 10000 nM), -7.44.
For the molecule `O=C1CCc2c(Oc3ccc4c(c3)[C@@H]3[C@H](O4)[C@H]3c3nc4cc(C(F)(F)F)ccc4[nH]3)ccnc2N1` [Lifirafenib (BGB-283)] (top concentration 10000 nM), the “selective drug sensitivity score” value was found to be 0.98.
As for `NC(=O)N1CCC(CC(=O)N2CCC([C@H]3c4ncc(Br)cc4CCc4cc(Cl)cc(Br)c43)CC2)CC1` [Lonafarnib] (top concentration 100000 nM), the “selective drug sensitivity score” value was -1.06.
For `NC1(c2ccc(-c3nc4ccn5c(=O)[nH]nc5c4cc3-c3ccccc3)cc2)CCC1` [MK-2206] (top concentration 1000 nM), the “selective drug sensitivity score” value is 4.76.
Still for that read-out and setting: to `O=C(Nc1cccc(NC(=O)c2cccc(O)c2O)c1)c1cccc(O)c1O` [MST-312] (top concentration 10000 nM) belongs 6; to `CC(=O)O[C@]1(C(C)=O)CC[C@H]2[C@@H]3C=C(C)C4=CC(=O)CC[C@]4(C)[C@H]3CC[C@@]21C` [Megestrol_acetate] (top concentration 10000 nM), 7.02.
Consider `CO[C@@H]1[C@H](N(C)C(=O)c2ccccc2)C[C@H]2O[C@]1(C)n1c3ccccc3c3c4c(c5c6ccccc6n2c5c31)C(=O)NC4` [Midostaurin] (top concentration 10000 nM), for which the “selective drug sensitivity score” value came to 10.1.
Regarding `CCCCCCCCCCCCCCCCOP(=O)([O-])OCC[N+](C)(C)C` [Miltefosine] (top concentration 100000 nM), the “selective drug sensitivity score” value is -1.54.
Still for that read-out and setting: to `Nc1ccccc1NC(=O)c1ccc(CNc2nccc(-c3cccnc3)n2)cc1` [Mocetinostat] (top concentration 10000 nM) belongs 15.5; to `CCNC(=O)C[C@@H]1N=C(c2ccc(Cl)cc2)c2cc(OC)ccc2-n2c(C)nnc21` [Molibresib] (top concentration 10000 nM), -5.5.
The same measure, in the same setting: to `Nc1ncnc2c1c(-c1cccc(OCc3ccccc3)c1)cn2[C@H]1C[C@@H](CN2CCC2)C1` [NVP-AEW541] (top concentration 10000 nM) belongs 4.48; to `CN[C@@H](C)C(=O)N[C@H](C(=O)N1CCC[C@H]1c1nc(C(=O)c2ccc(F)cc2)cs1)C1CCCCC1` [NVP-LCL161] (top concentration 25000 nM), -5.02.

The test system of the next test is KARPAS-45. The description is as above. The conditions noted are these: 72 h.
As for `Nc1ccccc1NC(=O)c1ccc(CNC(=O)OCc2cccnc2)cc1` [Entinostat] (top concentration 10000 nM), the “selective drug sensitivity score” value is 9.48.
On the same count and under the same terms, to `C#Cc1cccc(Nc2ncnc3cc(OCCOC)c(OCCOC)cc23)c1` [Erlotinib] (top concentration 10000 nM) belongs 2.86; to `O=C(Nc1nc2cccc(-c3ccc(CN4CCS(=O)(=O)CC4)cc3)n2n1)C1CC1` [Filgotinib] (top concentration 10000 nM), -1.04.
Same read-out and setting: to `C[C@H]1C=C2C(=O)O[C@H]3CC[C@@H](C1)[C@@]23O` [Galiellalactone] (top concentration 25000 nM) belongs 5.16; to `CN(C)C1CCN(C(=O)c2ccc(NC(=O)Nc3ccc(-c4nc(N5CCOCC5)nc(N5CCOCC5)n4)cc3)cc2)CC1` [Gedatolisib] (top concentration 1000 nM), 3.76.
As to `Nc1ccn([C@@H]2O[C@H](CO)[C@@H](O)C2(F)F)c(=O)n1` [Gemcitabine] (top concentration 1000 nM), the “selective drug sensitivity score” value is -7.44.
On the same count and under the same terms, to `COc1cc2c(cc1-c1c(C)noc1C)ncc1[nH]c(=O)n([C@H](C)c3ccccn3)c12` [I-BET151] (top concentration 10000 nM) belongs 9.16; to `O=C1CCc2c(Oc3ccc4c(c3)[C@@H]3[C@H](O4)[C@H]3c3nc4cc(C(F)(F)F)ccc4[nH]3)ccnc2N1` [Lifirafenib (BGB-283)] (top concentration 10000 nM), 2.88; to `NC(=O)N1CCC(CC(=O)N2CCC([C@H]3c4ncc(Br)cc4CCc4cc(Cl)cc(Br)c43)CC2)CC1` [Lonafarnib] (top concentration 100000 nM), 24.1.
